The source of these data is patent US20100160401A1, “4-PHENYLIMIDAZOLE-2-THIONE TYROSINASE INHIBITORS AND TREATMENT OR PREVENTION OF PIGMENTARY DISORDERS THEREWITH” (GALDERMA RESEARCH & DEVELOPMENT, BIOT, FRANCE, priority 2007, published 2010).

This assay deals with T1, tyrosinase (Mus musculus, UniProt P11344).
T1 construct: the supernatant obtained constitutes the cell lysate used as tyrosinase source in the enzymatic assay; endogenous in cells; host or cells: B16F1 murine melanoma cells, cultured with alpha-MSH, lysed in 1% Igepal and sonicated; the supernatant was used
T1 sequence (P11344 19-533): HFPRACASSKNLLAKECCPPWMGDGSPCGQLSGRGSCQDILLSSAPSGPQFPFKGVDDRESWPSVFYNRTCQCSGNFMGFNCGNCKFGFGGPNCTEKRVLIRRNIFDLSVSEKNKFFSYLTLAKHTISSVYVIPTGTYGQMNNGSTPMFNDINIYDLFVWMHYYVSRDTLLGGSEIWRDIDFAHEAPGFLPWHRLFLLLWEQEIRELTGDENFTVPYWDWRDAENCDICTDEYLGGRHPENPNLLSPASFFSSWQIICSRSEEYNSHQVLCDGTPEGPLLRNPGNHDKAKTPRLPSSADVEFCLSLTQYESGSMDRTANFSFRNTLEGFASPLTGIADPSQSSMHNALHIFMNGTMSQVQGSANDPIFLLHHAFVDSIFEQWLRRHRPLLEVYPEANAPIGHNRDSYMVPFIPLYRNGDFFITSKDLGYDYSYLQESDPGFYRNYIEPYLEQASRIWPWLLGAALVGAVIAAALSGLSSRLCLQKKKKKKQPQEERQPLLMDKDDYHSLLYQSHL
Briefly: Tyrosinase activity inhibition assay (B16F1 cell lysate, L-tyrosine substrate, MBTH trapping, absorbance 520 nm). The format is biochemical. As to conditions: lysate of B16F1 cells (murine melanoma line) as tyrosinase source, 37° C., reading at 520 nm after 6 hours, read-out: Tyrosine hydroxylase/Dopa oxidase IC50. The method, then: The activity of the inhibitors is measured starting from a lysate of B16F1 cells (murine melanoma line). In the presence of the L-tyrosine substrate, the tyrosinase present in these cells catalyses the hydroxylation of L-tyrosine to give L-DOPA and then the oxidation of the L-DOPA to give dopaquinone. In the presence of MBTH (3-methyl-2-benzothiazolinone hydrazone), the dopaquinone is trapped so as to form a pink complex which absorbs at 520 nm.
The B16F1 cells are cultured in DMEM medium+10% foetal calf serum+10^−9 M α-MSH for 4 days at 37° C. under 7% CO2. They are treated with trypsin, washed with PBS, counted and pelleted. The pellet is taken up at 10^7 cells/ml in lysis buffer (10 mM sodium phosphate, pH 6.8-1% Igepal) and the suspension is treated with ultrasound for 10 seconds. After centrifugation for 30 minutes at 4000 rpm, the supernatant obtained constitutes the cell lysate used as tyrosinase source in the enzymatic assay.
The assays are carried out in duplicate in 384-well plates in a total volume of 50 μl. Each well contains:
40 μl of solution containing 1.25 mM L-tyrosine, 6.25 μM L-DOPA (cofactor) and 3.75 mM MBTH in buffer B (62.25 mM sodium phosphate, pH 6.8-2.5% dimethylformamide),
5 μl of inhibitor diluted in DMSO,
5 μl of cell lysate diluted to ½ in 50 mM Tris HCl buffer, pH 7.5.
The plate is incubated at 37° C. and a spectrophotometric reading is carried out at 520 nm after incubating for 6 hours. To avoid any possible absorption of the products, the system uses corrected absorbance (absorbance at time 6 h absorbance at time zero).
The inhibitors are assayed in terms of dose-response so as to calculate an IC50 (dose which inhibits 50% of the enzymatic activity).
Several internal controls are added to each experiment:
control for 100% activity: the 5 μl of inhibitor are replaced with 5 μl of DMSO,
control for 50% activity: the 5 μl of inhibitor are replaced with 5 μl of phenylthiourea at 300 μM in DMSO,
control for 0% activity: the L-tyrosine substrate is replaced with buffer B.
With `Sc1nc(-c2ccccc2)c[nH]1` [Compound 1, 4-phenyl-1,3-dihydroimidazole-2-thione], the IC50 came out at 250 nM. Then `COc1ccc(-c2c[nH]c(=S)[nH]2)cc1` [Compound 3, 4-(4-methoxyphenyl)-1,3-dihydroimidazole-2-thione], with 900 nM.

As for `S=c1[nH]cc(-c2cccc(Br)c2)[nH]1` [Compound 4, 4-(3-bromophenyl)-1,3-dihydroimidazole-2-thione], the IC50 stood at 3000 nM. With `Fc1ccc(-c2c[nH]c(=S)[nH]2)cc1` [Compound 8, 4-(4-fluorophenyl)-1,3-dihydroimidazole-2-thione], the IC50 stood at 300 nM. For `Cc1ccc(-c2cnc(S)[nH]2)cc1` [Compound 13, 4-(4-methylphenyl)-1,3-dihydroimidazole-2-thione], the IC50 amounted to 600 nM.
